According to patent US10722501B2 (BAYER AKTIENGESELLSCHAFT, priority 2016, dated 2020):
pIC50: −log10 of the molar value.

Biological target: T1, recombinant full-length human prolyl endopeptidase (PREP) (Homo sapiens, UniProt P48147)
T1 construct: To recombinant full-length human prolyl endopeptidase (PREP, R&D-Systems, 4308-SE); purchased R&D-Systems 4308-SE
T1 sequence (P48147 1-710): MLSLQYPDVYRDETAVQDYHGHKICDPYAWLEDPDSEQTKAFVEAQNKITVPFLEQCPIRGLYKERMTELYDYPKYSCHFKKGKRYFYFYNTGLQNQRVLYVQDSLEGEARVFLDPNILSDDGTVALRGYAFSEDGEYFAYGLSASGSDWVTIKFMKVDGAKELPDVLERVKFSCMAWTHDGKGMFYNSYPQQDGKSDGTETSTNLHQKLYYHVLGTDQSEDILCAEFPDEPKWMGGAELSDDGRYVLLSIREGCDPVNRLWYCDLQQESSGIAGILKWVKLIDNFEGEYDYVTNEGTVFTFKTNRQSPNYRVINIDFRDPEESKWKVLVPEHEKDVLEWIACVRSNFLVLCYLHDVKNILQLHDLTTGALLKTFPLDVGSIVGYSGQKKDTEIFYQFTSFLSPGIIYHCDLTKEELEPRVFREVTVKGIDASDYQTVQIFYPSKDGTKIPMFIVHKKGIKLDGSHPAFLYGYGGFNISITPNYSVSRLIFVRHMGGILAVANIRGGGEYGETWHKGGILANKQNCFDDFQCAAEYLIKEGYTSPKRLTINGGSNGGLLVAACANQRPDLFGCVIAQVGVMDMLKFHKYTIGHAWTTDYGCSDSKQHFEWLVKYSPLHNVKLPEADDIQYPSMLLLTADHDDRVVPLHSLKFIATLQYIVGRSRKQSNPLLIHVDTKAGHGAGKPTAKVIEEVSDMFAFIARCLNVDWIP
Test: Biochemical human prolyl endopeptidase (PREP) assay with fluorescently labelled substrate
Conditions: substrate Z-Gly-Pro-AMC 50 μM, 32° C., 60 min; some as mean values from multiple independent determinations
Outline: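 Initial rates of fluorescence increase from 50 μM Z-Gly-Pro-AMC cleavage (ex 360/em 465 nm, 60 min, 32° C) give percent PREP activity versus no-compound control, and IC50 is interpolated. Enzyme used at 0.4 nM (final, example) in Tris pH 7.5 with EDTA, GSH, BSA and Brij-35; compounds span 1 nM to 30 μM.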

Row | pIC50 | Compound
1 | 7.74 | O=C([C@@H]1CCC(F)(F)c2nn(Cc3ncc(F)cc3F)c(=O)n21)N1CCC(F)(F)C1 [Example 588, (5S)-2-[(3,5-Difluoropyridin-2-yl)methyl]-5-[(3,3-difluoropyrrolidin-1-yl)carbonyl]-8,8-difluoro-5,6,7,8-tetrahydro[1,2,4]triazolo[4,3-a]pyridin-3(2H)-one]
2 | 8.05 | O=C([C@@H]1CCCc2nn(Cc3cccc(C(F)(F)F)n3)c(=O)n21)N1CCC(F)(F)C1 [Example 368, (5S)-5-[(3,3-Difluoropyrrolidin-1-yl)carbonyl]-2-{[6-(trifluoromethyl)pyridin-2-yl]methyl}-5,6,7,8-tetrahydro[1,2,4]triazolo[4,3-a]pyridin-3(2H)-one]
3 | 8.80 | O=C([C@@H]1CCCc2nn(Cc3ncccc3Cl)c(=O)n21)N1C[C@@H](F)[C@@H](F)C1 [Example 395, (5S)-2-[(3-Chloropyridin-2-yl)methyl]-5-{[(3R,4S)-3,4-difluoropyrrolidin-1-yl]carbonyl}-5,6,7,8-tetrahydro[1,2,4]triazolo[4,3-a]pyridin-3(2H)-one]
4 | 6.68 | CNC(=O)c1ccc(Cn2nc3n(c2=O)C(C(=O)N2CCCC2)CCC3)cc1 (racemic) [Example 155, N-Methyl-4-{[(5RS)-3-oxo-5-(pyrrolidin-1-ylcarbonyl)-5,6,7,8-tetrahydro[1,2,4]triazolo[4,3-a]pyridin-2(3H)-yl]methyl}benzamide]
5 | 8.89 | O=C(C1CCCc2nn(Cc3ccc(Cl)s3)c(=O)n21)N1CCC(F)(F)C1 (racemic) [Example 54, (5RS)-2-[(5-Chloro-2-thienyl)methyl]-5-[(3,3-difluoropyrrolidin-1-yl)carbonyl]-5,6,7,8-tetrahydro[1,2,4]triazolo[4,3-a]pyridin-3(2H)-one]
6 | 8.10 | CC(c1ccc(Cl)cc1)n1nc2n(c1=O)C(C(=O)N1CCCC1)CCC2 (single isomer, unassigned) [Example 5, (5RS)-2-[(1 RS)-1-(4-Chlorophenyl)ethyl]-5-(pyrrolidin-1-ylcarbonyl)-5,6,7,8-tetrahydro[1,2,4]triazolo[4,3-a]pyridin-3(2H)-one]
7 | 9.25 | CC(c1ccc(C(F)(F)F)nc1)n1nc2n(c1=O)[C@H](C(=O)N1CC[C@H](F)C1)CCC2 (single isomer, unassigned) [Example 216]
8 | 7.32 | O=C(C1CC(C(F)(F)F)Cc2nn(Cc3ccc(Cl)nc3)c(=O)n21)N1CCC(F)(F)C1 (single isomer, unassigned) [Example 231, (5RS,7RS)-2-[(6-Chloropyridin-3-yl)methyl]-5-[(3,3-difluoropyrrolidin-1-yl)carbonyl]-7-(trifluoromethyl)-5,6,7,8-tetrahydro[1,2,4]triazolo[4,3-a]pyridin-3(2H)-one]
9 | 9.08 | Cc1ccc(Cn2nc3n(c2=O)[C@H](C(=O)N2CC[S+]([O-])C2)CCC3)cc1 (mixture of isomers) [Example 141, (5S)-2-(4-Methylbenzyl)-5-{[(1 RS)-1-oxido-1,3-thiazolidin-3-yl]carbonyl}-5,6,7,8-tetrahydro[1,2,4]triazolo[4,3-a]pyridin-3(2H)-one]
10 | 8.39 | Cc1ccc(CCn2nc3n(c2=O)C(C(=O)N2CCCC2)CCC3)cc1 (racemic) [Example 57, (5RS)-2-[2-(4-Methylphenyl)ethyl]-5-(pyrrolidin-1-ylcarbonyl)-5,6,7,8-tetrahydro[1,2,4]triazolo[4,3-a]pyridin-3(2H)-one]
11 | 8.49 | O=C(C1CCc2nn(Cc3ccnc(C(F)(F)F)c3F)c(=O)n21)N1CC[C@H](F)C1 (single isomer, unassigned) [Example 180]
12 | 6.29 | O=C(C1CC(C(F)(F)F)Cc2nn(Cc3cncc(Cl)c3)c(=O)n21)N1CC[C@H](F)C1 (single isomer, unassigned) [Example 318]
13 | 8.88 | O=C([C@@H]1CCCc2nn(Cc3ccc(F)c(Cl)c3)c(=O)n21)N1CC(F)C1 [Example 457, (5S)-2-(3-Chloro-4-fluorobenzyl)-5-[(3-fluoroazetidin-1-yl)carbonyl]-5,6,7,8-tetrahydro[1,2,4]triazolo[4,3-a]pyridin-3(2H)-one]
14 | 9.07 | O=C([C@@H]1CCCc2nn(Cc3cc(C(F)(F)F)nc4ccccc34)c(=O)n21)N1CC[C@H](F)C1 [Example 539, (5S)-5-{[(3S)-3-Fluoropyrrolidin-1-yl]carbonyl}-2-{[2-(trifluoromethyl)quinolin-4-yl]methyl}-5,6,7,8-tetrahydro[1,2,4]triazolo[4,3-a]pyridin-3(2H)-one]
15 | 7.04 | O=C(C1CC(C(F)(F)F)Cc2nn(Cc3ccnc(C(F)(F)F)c3F)c(=O)n21)N1CC[C@H](F)C1 (single isomer, unassigned) [Example 258]
16 | 9.29 | O=C([C@@H]1CCCc2nn(Cc3ccc(Cl)c(F)c3)c(=O)n21)N1CCC(F)(F)C1 [Example 464, (5S)-2-(4-Chloro-3-fluorobenzyl)-5-[(3,3-difluoropyrrolidin-1-yl)carbonyl]-5,6,7,8-tetrahydro[1,2,4]triazolo[4,3-a]pyridin-3(2H)-one]
17 | 6.96 | O=C([C@@H]1CCCc2nn(Cc3nc(C(F)(F)F)no3)c(=O)n21)N1CC(F)(F)C1 [Example 499, (5S)-5-[(3,3-Difluoroazetidin-1-yl)carbonyl]-2-{[3-(trifluoromethyl)-1,2,4-oxadiazol-5-yl]methyl}-5,6,7,8-tetrahydro[1,2,4]triazolo[4,3-a]pyridin-3(2H)-one]
18 | 8.41 | CC1Cc2nn(Cc3ccc(C(F)(F)F)nc3)c(=O)n2C(C(=O)N2CCC(F)(F)C2)C1 (racemic) [Example 332, (5RS,7RS)-5-[(3,3-Difluoropyrrolidin-1-yl)carbonyl]-7-methyl-2-{[6-(trifluoromethyl)pyridin-3-yl]methyl}-5,6,7,8-tetrahydro[1,2,4]triazolo[4,3-a]pyridin-3(2H)-one]
19 | 8.08 | Cc1cc(Cn2nc3n(c2=O)C(C(=O)N2CCCC2)CCC3)ccn1 (racemic) [Example 15, (5RS)-2-[(2-Methylpyridin-4-yl)methyl]-5-(pyrrolidin-1-ylcarbonyl)-5,6,7,8-tetrahydro[1,2,4]triazolo[4,3-a]pyridin-3(2H)-one]
20 | 9.36 | Cc1ccc(CCn2nc3n(c2=O)[C@H](C(=O)N2CCCC2)CCC3)cc1 [Example 521, (5S)-2-[2-(4-Methylphenyl)ethyl]-5-(pyrrolidin-1-ylcarbonyl)-5,6,7,8-tetrahydro[1,2,4]triazolo[4,3-a]pyridin-3(2H)-one]
21 | 8.13 | O=C(C1CC(C(F)(F)F)Cc2nn(Cc3ncc(F)cc3Cl)c(=O)n21)N1CCC(F)(F)C1 (racemic) [Example 575, (5RS,7RS)-2-[(3-Chloro-5-fluoropyridin-2-yl)methyl]-5-[(3,3-difluoropyrrolidin-1-yl)carbonyl]-7-(trifluoromethyl)-5,6,7,8-tetrahydro[1,2,4]triazolo[4,3-a]pyridin-3(2H)-one]
22 | 7.59 | O=C([C@@H]1CCCc2nn(Cc3nc(C(F)(F)F)no3)c(=O)n21)N1CCC(F)(F)C1 [Example 501, (5S)-5-[(3,3-Difluoropyrrolidin-1-yl)carbonyl]-2-{[3-(trifluoromethyl)-1,2,4-oxadiazol-5-yl]methyl}-5,6,7,8-tetrahydro[1,2,4]triazolo[4,3-a]pyridin-3(2H)-one]
